The values below come from patent publication US8921555B2, “Substituted-1,3,8-triazaspiro[4.5]decane-2,4-diones” (Merck Sharp & Dohme Corp., priority 2009, dated 2014).

Some results are limits rather than exact numbers.

One may read the IC50 as the concentration that inhibits the measured activity by half.

In the first test the target is T1, HIF-PHD2 (Homo sapiens, UniProt Q9GZT9).
T1 construct: FLAG-tagged full length PHD2 expressed in and purified from baculovirus-infected Sf9 cells; FLAG; made in house; host or cells: baculovirus-infected Sf9 cells
T1 sequence (Q9GZT9 whole entry): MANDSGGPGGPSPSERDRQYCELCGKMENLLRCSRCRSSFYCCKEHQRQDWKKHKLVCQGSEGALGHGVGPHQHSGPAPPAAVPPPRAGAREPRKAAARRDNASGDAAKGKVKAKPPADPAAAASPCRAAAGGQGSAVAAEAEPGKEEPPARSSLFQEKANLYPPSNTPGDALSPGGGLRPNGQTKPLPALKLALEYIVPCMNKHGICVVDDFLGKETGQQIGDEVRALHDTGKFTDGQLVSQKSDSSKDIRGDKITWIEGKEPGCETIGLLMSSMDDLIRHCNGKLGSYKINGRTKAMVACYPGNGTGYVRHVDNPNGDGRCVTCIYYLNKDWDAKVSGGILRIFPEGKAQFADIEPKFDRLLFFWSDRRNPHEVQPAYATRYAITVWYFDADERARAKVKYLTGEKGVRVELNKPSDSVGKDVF
The test can be described thus: Assay for HIF-PHD2 Catalytic Activity (PHD2 Binding Activity). The format is biochemical.
Details: not given
In turn, `COc1ccnc(N2C(=O)N(c3ccc(-c4ccccc4)cc3)C(=O)C23CCN(Cc2nccn2CC(=O)OC(C)(C)C)CC3)n1` [Compound 1-19, tert-butyl (2-{[3-biphenyl-4-yl-1-(4-methoxypyrimidin-2-yl)-2,4-dioxo-1,3,8-triazaspiro[4,5]dec-8-yl]methyl}-1H-imidazol-1-yl)acetate] had an IC50 of more than 50 nM.

`Cc1cccnc1CN1CCC2(C(=O)N(c3ccc(-c4ccccc4)cc3)C(=O)N2c2cc(O)ncn2)C(C(=O)O)C1` (stereo not shown) [Compound 3-7, 3-biphenyl-4-yl-1-(6-hydroxypyrimidin-4-yl)-8-[(3-methylpyridin-2-yl)methyl]-2,4-dioxo-1,3,8-triazaspiro[4.5]decane-6-carboxylic acid] yielded an IC50 of 0.5 to 20 nM.

Turning to `COc1cc(O)nc(N2C(=O)N(c3ccc(-c4ccccc4)cc3)C(=O)C23CCN(Cc2ncccc2C)CC3)n1` [Compound 1-56, 3-biphenyl-4-yl-1-(4-hydroxy-6-methoxypyrimidin-2-yl)-8-[(3-methylpyridin-2-yl)methyl]-1,3,8-triazaspiro[4.5]decane-2,4-dione], the IC50 is 0.5 to 20 nM.

As for `COc1ccnc(N2C(=O)N(c3ccc(-c4ccccc4)cc3)C(=O)C23CCN(Cc2nccn2CCC(=O)O)CC3)n1` [Compound 1-22, 3-(2-{[3-biphenyl-4-yl-1-(4-methoxypyrimidin-2-yl)-2,4-dioxo-1,3,8-triazaspiro[4.5]dec-8-yl]methyl}-1H-imidazol-1-yl)propanoic acid], the IC50 fell in the range of 0.5 to 20 nM.

Molecule `Cc1cncc(N2C(=O)N(c3ccc(-c4ccc(C(=O)O)cc4)cc3)C(=O)C23CCN(Cc2ncccc2C)CC3)n1` [Compound 7-7, 4′-{1-(6-methylpyrazin-2-yl)-8-[(3-methylpyridin-2-yl)methyl]-2,4-dioxo-1,3,8-triazaspiro[4.5]dec-3-yl}biphenyl-4-carboxylic acid] displayed a half-inhibitory concentration (IC50) of 0.5 to 20 nM.

Turning to `Cc1cccnc1CN1CCC2(CC1)C(=O)N(c1ccc(-c3ccccc3)cc1)C(=O)N2c1nccc(C(=O)O)n1` [Compound 1-59, 2-{3-biphenyl-4-yl-8-[(3-methylpyridin-2-yl)methyl]-2,4-dioxo-1,3,8-triazaspiro[4.5]dec-1-yl}pyrimidine-4-carboxylic acid], the IC50 lay in the range of 0.5 to 20 nM.

Consider `COc1cc(N2C(=O)N(c3ccc(-c4ccc(C(=O)O)cc4F)nc3)C(=O)C23CCN(Cc2ncccc2C)CC3)ncn1` [Compound 12-1, 3-fluoro-4-(5-{1-(6-methoxypyrimidine-4-yl)-8-[(3-methylpyridin-2-yl)methyl]-2,4-dioxo-1,3,8-triazaspiro[4.5]dec-3-yl}pyridin-2-yl)-3-benzoic acid], for which the IC50 lay within 0.5 to 20 nM.

Molecule `O=C1N(c2ccc(-c3ccccc3)cc2)C(=O)C2(CCN(Cc3ncccc3Br)CC2)N1c1nccc(O)n1` [Compound 1-31, 3-biphenyl-4-yl-8-[(3-bromopyridin-2-yl)methyl]-1-(4-hydroxypyrimidin-2-yl)-1,3,8-triazaspiro[4.5]decane-2,4-dione] showed a half-maximal inhibitory concentration (IC50) of more than 50 nM.

Regarding `O=C(O)CN1CCC2(CC1)C(=O)N(c1ccc(-c3ccccc3)cc1)C(=O)N2c1cnccn1` [Compound 2-3, (3-biphenyl-4-yl-2,4-dioxo-1-pyrazin-2-yl-1,3,8-triazaspiro[4.5]dec-8-yl)acetic acid], the IC50 lay within 0.5 to 20 nM.

Molecule `COc1ccnc(N2C(=O)N(c3ccc(-c4ccccc4)cc3)C(=O)C23CCN(Cc2ncccc2C)CC3)n1` [Compound 1-29, 3-biphenyl-4-yl-1-(4-methoxypyrimidin-2-yl)-8-[(3-methylpyridin-2-yl)methyl]-1,3,8-triazaspiro[4.5]decane-2,4-dione] had an IC50 of 0.5 to 20 nM.

Take `COc1ccnc(N2C(=O)N(c3ccc(-c4ccccc4)cc3)C(=O)C23CCN(Cc2nnn[nH]2)CC3)n1` [Compound 1.39, 3-biphenyl-4-yl-1-(4-methoxypyrimidin-2-yl)-8-(1H-tetrazol-5-ylmethyl)-1,3,8-triazaspiro[4.5]decane-2,4-dione]: the half-inhibitory concentration (IC50) is more than 50 nM.

`COc1ccnc(N2C(=O)N(c3ccc(-c4ccc(C(=O)O)cc4C)nc3)C(=O)C23CCN(Cc2ncccc2C)CC3)n1` [Compound 11-2, 4-(5-{1-(4-methoxypyrimidin-2-yl)-8-[(3-methylpyridin-2-yl)methyl]-2,4-dioxo-1,3,8-triazaspiro[4.5]dec-3-yl}-pyridin-2-yl)-3-methylbenzoic acid] returned an IC50 of 0.5 to 20 nM.

`COc1cc(N2C(=O)N(c3ccc(-c4ccc(C(=O)O)cc4)nc3)C(=O)C23CCN(Cc2cc(O)ccn2)CC3)ncn1` [Compound 10-4, 4-(5-{8-[(4-hydroxypyridin-2-yl)methyl]-1-(6-methoxypyrimidin-4-yl)-2,4-dioxo-1,3,8-triazaspiro[4.5]dec-3-yl}-pyridin-2-yl) benzoic acid] had an IC50 of 0.5 to 20 nM.

Consider `Cc1cccnc1CN1CCC2(CC1)C(=O)N(c1ccc(-c3ccccc3)cc1)C(=O)N2c1cccc(F)n1` [Compound 1-6, 3-biphenyl-4-yl-1-(6-fluoropyridin-2-yl)-8-[(3-methylpyridin-2-yl)methyl]-1,3,8-triazaspiro[4.5]decane-2,4-dione], for which the IC50 was 0.5 to 20 nM.

`Cc1cccnc1CN1CCC2(CC1)C(=O)N(c1ccc(-c3ccccc3)cc1)C(=O)N2c1nc(O)cc(O)n1` [Compound 1-55, 3-biphenyl-4-yl-1-(4,6-dihydroxypyrimidin-2-yl)-8-[(3-methylpyridin-2-yl)methyl]-1,3,8-triazaspiro[4.5]decane-2,4-dione] returned an IC50 of 0.5 to 20 nM.

As for `COc1ccnc(N2C(=O)N(c3ccc(C#N)cc3)C(=O)C23CCN(Cc2ncccc2C)CC3)n1` [Compound 1-25, 4-{1-(4-methoxypyrimidin-2-yl)-8-[(3-methylpyridin-2-yl)methyl]-2,4-dioxo-1,3,8-triazaspiro[4.5]dec-3-yl}benzonitrile], the IC50 is more than 50 nM.

Molecule `CCOC(=O)C1CN(Cc2ncccc2C)CCC12C(=O)N(c1ccc(-c3ccccc3)cc1)C(=O)N2c1nccc(OC)n1` (stereo not shown) [Compound 3-2, ethyl 3-biphenyl-4-yl-1-(4-methoxypyrimidin-2-yl)-8-[(3-methylpyridin-2-yl)methyl]-2,4-dioxo-1,3,8-triazaspiro[4.5]decane-6-carboxylate] had an IC50 of 0.5 to 20 nM.

In the case of `COc1cc(N2C(=O)N(c3ccc(-c4ccc(C5CC(=O)NN5)cc4)cc3)C(=O)C23CCN(Cc2ncccc2C)CC3)ncn1` (stereo not shown) [Compound 7-13, 1-(6-methoxypyrimidin-4-yl)-8-[(3-methylpyridin-2-yl)methyl]-3-[4′-(5-oxopyrazolidin-3-yl)biphenyl-4-yl]-1,3,8-triazaspiro[4.5] decane-2,4-dione], the IC50 is 0.5 to 20 nM.

`Cc1cccnc1CN1CCC2(CC1)C(=O)N(c1ccc(-c3nnn[nH]3)cc1)C(=O)N2c1nccc(O)n1` [Compound 1-16, 1-(4-hydroxypyrimidin-2-yl)-8-[(3-methylpyridin-2-yl)methyl]-3-[4-(1H-tetrazol-5-yl)phenyl]-1,3,8-triazaspiro[4.5]decane-2,4-dione] returned an IC50 of more than 50 nM.

`CCOC(=O)C1CN(Cc2ncccc2C)CCC12C(=O)N(c1ccc(-c3ccccc3)cc1)C(=O)N2c1cc(OC)ncn1` (stereo not shown) [Compound 3-9, Ethyl 3-biphenyl-4-yl-1-(6-methoxypyrimidin-4-yl)-8-[(3-methylpyridin-2-yl)methyl]-2,4-dioxo-1,3,8-triazaspiro[4.5]decane-6-carboxylate] gave an IC50 of 0.5 to 20 nM.

In turn, `Cc1cccnc1CN1CCC2(CC1)C(=O)N(c1ccc(-c3ccccc3)cc1)C(=O)N2c1cc(C(=O)O)ccn1` [Compound 1-5, 2-{3-biphenyl-4-yl-8-[(3-methylpyridin-2-yl)methyl]-2,4-dioxo-1,3,8-triazaspiro[4.5]dec-1-yl}isonicotinic acid] yielded an IC50 of 0.5 to 20 nM.

The molecule `COc1ccnc(N2C(=O)N(c3ccc(-c4ccccc4)cc3)C(=O)C23CCN(Cc2nc[nH]c2C)CC3)n1` [Compound 1-49, 3-biphenyl-4-yl-1-(4-methoxypyrimidin-2-yl)-8-[(5-methyl-1-H-imidazol-4-yl)methyl]-1,3,8-triazaspiro[4.5]decane-2,4-dione] showed an IC50 of 0.5 to 20 nM.

Turning to `Cc1cc(N2C(=O)N(c3ccc(-c4ccc(C(=O)O)cc4)cc3)C(=O)C23CCN(Cc2ncccc2C)CC3)ncn1` [Compound 7-9, 4′-[8-[(3-methylpyridin-2-yl)methyl]-1-(6-methylpyrimidin-4-yl)-2,4-dioxo-1,3,8-triazaspiro[4.5]dec-3-yl]biphenyl-4-carboxylic acid], the IC50 is 0.5 to 20 nM.

Still in this test, the particulars now being: read-out: PHD2 Binding Activity IC50.
For the molecule `Cc1cccnc1CN1CCC2(CC1)C(=O)N(c1ccc(-c3ccccc3)cc1)C(=O)N2c1cccs1` [Compound 1-27, 3-biphenyl-4-yl-8-[(3-methylpyridin-2-yl)methyl]-1-(2-thienyl)-1,3,8-triazaspiro[4.5]decane-2,4-dione], the 50% inhibitory concentration (IC50) was in the range of 0.5 to 20 nM.

With `O=C(O)c1[nH]cnc1CN1CCC2(CC1)NC(=O)N(c1ccc(-c3ccccc3)cc1)C2=O` [Compound 1-51, 4-[(3-biphenyl-4-yl-2,4-dioxo-1,3,8-triazaspiro[4.5]dec-8-yl)methyl]-1-H-imidazole-5-carboxylic acid], the IC50 is 0.5 to 20 nM.
